Results as given in PMC5597121, “The human bitter taste receptor T2R38 is broadly tuned for bacterial compounds” (PLoS ONE, 2017).
Substitutions are numbered along the chain they refer to. Where “and” joins values, the source holds several entries; their conditions need not be identical. Equal values may be shown once. Entries after “also recorded” stand apart in the source; their conditions may differ.

What was measured:
T2R38 = target: T1, T2R38 (Homo sapiens, UniProt P59533, A49P/I296V); assay: Single cell calcium imaging, Peakrapid cells (Gα16gustducin44) transiently transfected with T2R38; format: cell-based; conditions: for response of T2R38 PAV transfected cells (S7_fig raw data): individual values of experiments 1-5; for specific activation of T2R38: ethanol-solubilized
T1 construct: leader: first 45 amino acids of rat somatostatin receptor subtype 3 (SSTR3) (N); expressed in transfected cells; host or cells: Peakrapid cells (HEK293 derivative, ATCC CRL-2828) stably expressing Galpha16gustducin44, co-transfected with human RTP4
T1 sequence (P59533 1-333 A49P/I296V): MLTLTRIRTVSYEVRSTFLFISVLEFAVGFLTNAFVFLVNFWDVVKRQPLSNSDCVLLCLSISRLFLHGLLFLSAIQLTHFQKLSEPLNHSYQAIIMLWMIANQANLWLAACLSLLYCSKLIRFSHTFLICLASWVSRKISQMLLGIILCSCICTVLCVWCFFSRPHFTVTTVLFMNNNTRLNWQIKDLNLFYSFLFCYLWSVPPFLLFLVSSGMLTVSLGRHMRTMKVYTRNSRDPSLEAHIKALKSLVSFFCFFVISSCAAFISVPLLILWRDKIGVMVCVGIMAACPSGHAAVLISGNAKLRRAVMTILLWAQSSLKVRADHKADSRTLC
Excerpt: (§1) The coding sequences of either the functional (PAV, GenBank accession number AY258597.1) and non-functional (AVI, GenBank accession number AF494231.1) were amplified from human genomic DNA by polymerase chain reaction.
These coding sequences were cloned in a pEFIB backbone vector in translational fusion with the coding sequence of a leader sequence corresponding to the 45 first amino acids of the rat somatostatin receptor subtype 3 [20]. The constructs were verified by sequencing. The coding sequence of RTP4 (Genbank accession number AY562238.1) was amplified from human spleen cDNA and cloned a pCI backbone vector.
The Gα16gustducin44 sequence was generated by swapping the last 132 nucleotides of the G α16 with the corresponding terminal sequence of the Gα-gustducin [21] and was cloned in a pIRES-Puro plasmid. This vector was transfected in the Peakrapid cell line (ATCC reference: CRL-2828™; purchased from LGC Standards SARL, Molsheim, FRANCE), HEK293 cell line derivative, cultured in EMEM culture medium (reference BE12-136F; Lonza, Vervier, BELGIUM) supplemented with 10% of foetal bovine serum (Sigma-Aldrich, Bornem, Belgium) and 1 μg/ml of Puromycin to allow the selection of recombinant cell populations. Cell clones expressing the Gα16gustducin44 were selected and the clone presenting the best functional response of T2R38 to phenylthicarbamide was used for the study (see below).
(§2) The Peakrapid cell line expressing stably a chimeric Gα16gustducin44 G protein [21] was used. 40 000 cells were seeded in each well of a black/clear poly-D-lysine cellware pre-coated 96-well plate (Biocoat®, Becton-Dickinson, Erembodegem, Belgium) and transiently transfected with 50 ng of plasmid DNA containing the receptor sequence or not (empty vector) and with 50 ng of chaperone protein RTP4 per well. Forty hours after transfection, cells were incubated with the calcium-sensitive dye Fluo4 (Life Technologies, Oregon, USA) solubilized at 10 μg/ml in a buffer containing EMEM (150 mM NaCl, 5 mM KCl, 2 mM CaCl2, 1.2 mM MgCl2, 10 mM glucose), 10 mM HEPES, 0.01% (v/v) Pluronic F127, 0.1% (w/v) bovine serum albumin. After 1 h incubation at 37°C, cells were rinsed twice with the same buffer without Fluo4 and left in 50 μl buffer (prior ligand injection). Measurement were performed on a platform based on a motorized Axiobserver Z1 fluorescence microscope piloted by a Axiovision software (Zeiss, Jena, Germany) as described previously. For each selected well, images were taken 1 per second, during 30 seconds. 50 μl of the buffer containing the ligand twice concentrated was injected on the 2nd second of the time lapse record.
After time lapse record, the number of responding cells in each injected well was determined using ImageJ 1.34 (Rasband, W.S., ImageJ, National Institutes of Health, Bethesda, Maryland, USA, http://rsb.info.nih.gov/ij/1997-2004), and expressed as the percentage of the surface of a microscope field covered by activated cells with respect to the total surface of the field covered by confluent cells. Automated determination of the surface occupied by responding cells is easier to perform than a cell counting. The resulting percentage of positive surface provided a convenient estimation of the percentage of responding cells, as observed by comparing the percentage of positive surface and percentage of responsive cells determined by direct counting, in the same experiment. In agreement with the literature, the percentage of responding cells was proportional to the agonist concentration. During experiment in each plate, at least 2 wells were tested with phenylthiocarbamide (PTC) at 0.1 mM, which is one of the best characterized agonist of T2R38 in the literature. The activation of T2R38 by PTC allows normalization of the result of other tested molecules. The results were thus expressed as the percentage of PTC activation. […]

[1] = system: mock transfected cells (empty vector); assay: Single cell calcium imaging, control: mock transfected (empty vector) Peakrapid cells; format: cell-based, human
Protocol: as §2
(§3) After time lapse record, the number of responding cells in each injected well was determined using ImageJ 1.34 (Rasband, W.S., ImageJ, National Institutes of Health, Bethesda, Maryland, USA, http://rsb.info.nih.gov/ij/1997-2004), and expressed as the percentage of the surface of a microscope field covered by activated cells with respect to the total surface of the field covered by confluent cells. Automated determination of the surface occupied by responding cells is easier to perform than a cell counting. The resulting percentage of positive surface provided a convenient estimation of the percentage of responding cells, as observed by comparing the percentage of positive surface and percentage of responsive cells determined by direct counting, in the same experiment. In agreement with the literature, the percentage of responding cells was proportional to the agonist concentration. During experiment in each plate, at least 2 wells were tested with phenylthiocarbamide (PTC) at 0.1 mM, which is one of the best characterized agonist of T2R38 in the literature. The activation of T2R38 by PTC allows normalization of the result of other tested molecules. The results were thus expressed as the percentage of PTC activation. In scaling calcium imaging assays using this latter receptor, concentration-responses curves were performed and data were fitted to a four parameter logistic equation: y=min+ (max− min)/1+10 ^(logEC50−x)nH . Min and max are the minimum and the maximum values of the percentage of cell-activated surface respectively, y is the percentage of cell-activated surface at the x concentration and nH is the Hill coefficient.

T2R38 AVI = target: T2, T2R38 AVI (Homo sapiens, UniProt P59533, A262V); assay: Single cell calcium imaging, control: cells transfected with nonfunctional allele (AVI) of T2R38; format: cell-based; conditions: for response of T2R38 AVI transfected cells (S7_fig raw data): individual values of experiments 1-5
T2 construct: leader: first 45 amino acids of rat somatostatin receptor subtype 3 (SSTR3) (N); expressed in transfected cells; host or cells: Peakrapid cells (HEK293 derivative, ATCC CRL-2828) stably expressing Galpha16gustducin44, co-transfected with human RTP4
T2 sequence (P59533 1-333 A262V): T1 sequence (P59533 1-333 A49P/I296V) with P49A, A262V, V296I
Protocol: as §1, §2, §3

[2] = 1mM in DMSO 1.5%, listed as HSL-C12
[3] = 1mM in EtOH 2%, listed as HSL-C12

For C[S+](C)[O-] [DMSO, dimethylsulfoxide], the “agonist activity on T2R38 (in words)” value (T2R38) was “activated T2R38”, the “percentage of surface covered by activated cells” value (“percentage of surface covered” for short) (T2R38; DMSO 0.0208957 M) was 0.32% and 1.00% and 0.12% and 3.02% and 1.04% and 0.84% and the “percentage of surface covered” value (T2R38; DMSO 0.0505834 M) was 0.62% and 1.17% and 1.07% and 2.06% and 2.44%. The “percentage of surface covered” value (T2R38; DMSO 0.0660305 M) was 0.58% and 2.76% and 4.06% and 1.23% and 6.36% and 2.08%, the “percentage of surface covered” value (T2R38; DMSO 0.15%) was 0.58% and 0.91% and 0.69% and 1.00% and the “percentage of surface covered” value (T2R38; DMSO 0.3%) was 0.69% and 0.46%. For the same compound, the “percentage of surface covered” value (T2R38; DMSO 1.5%) was 4.39% and 7.39% and 7.25% and 2.49% and 4.85% and 7.28%, the T2R38-dependent calcium response (T2R38; DMSO 1.5% (209 mM) alone) was “induced a T2R38-dependent calcium response of the same intensity; also recorded: activates specifically T2R38” and the “Emax (% of positive control)” value (T2R38; percentage of the response elicited by 0.1 mM PTC) was 88 % of positive control. For the same compound, the “percentage of surface covered” value ([1]; DMSO 0.0208957 M) was 0.0457% and 0.0545% and 0.10%, the “percentage of surface covered” value ([1]; DMSO 0.0505834 M) was 0.62% and 0.46% and 0.98% and the “percentage of surface covered” value ([1]; DMSO 0.0660305 M) was 1.05% and 0.28% and 0.79%. The “percentage of surface covered” value ([1]; DMSO 0.113804 M) was 0.19% and 0.57% and 0.37%, the “percentage of surface covered” value ([1]; DMSO 0.15%) was 0.20% and 0.05% and the “percentage of surface covered” value ([1]; DMSO 0.161577 M) was 0.48% and 0.22% and 0.50%. The “percentage of surface covered” value ([1]; DMSO 0.208656 M) was 1.44% and 1.21% and 1.20%, the “percentage of surface covered” value ([1]; DMSO 0.283773 M) was 0.60% and 5.54% and 2.61% and the “percentage of surface covered” value ([1]; DMSO 0.3%) was 0.01%. For the same compound, the “percentage of surface covered” value ([1]; DMSO 0.388101 M) was 0.89% and 2.18% and 2.66%, the “percentage of surface covered” value ([1]; DMSO 0.417313 M) was 2.52% and 1.37% and 1.55% and the “percentage of surface covered” value ([1]; DMSO 1.5%) was 1.51% and 0.51% and 0.83% and 0.76% and 0.97% and 0.34%. For the same compound, the “effect on the non-functional haplotype of T2R38 (AVI)” value (T2R38 AVI) was “absence of effect”.
For O=C1CCCO1 [γ-butyrolactone], the “agonist activity on T2R38 (in words)” value (T2R38) was “able to specifically trigger this receptor”, the EC50 (T2R38; EC50, concentration-response curve) was 12 mM and the “response of T2R38 PAV transfected cells (S7_fig raw data)” value (T2R38; listed as g-butyrolactone) was 18% and 20% and 13% and 12% (2×) and 14% and 11% (2×) and 9.52% and 15%. For the same compound, the EC50 (T2R38; logEC50, printed in the picture of the concentration-response curve) was 12 mM, the Emax (T2R38; read-out: Emax (% of positive control)) was 33% and the “response of T2R38 AVI transfected cells (S7_fig raw data)” value (T2R38 AVI; listed as g-butyrolactone) was 0.0283% and 0.0479% and 0.129% and 0.148% and 0.16% and 0.208% and 0.188% and 0.394% and 0.0477% and 0.222%.
In the case of CSSC [diméthyldisulfide], the “response of T2R38 PAV transfected cells (S7_fig raw data)” value (T2R38) is reported as 18% and 12% (2×) and 2.83% and 2.52% and 3.72% and 7.4% and 9% and 2% and 0.585% and the “response of T2R38 AVI transfected cells (S7_fig raw data)” value (T2R38 AVI) is reported as 0.145% and 0.026% and 1.18% and 0.463% and 1.36% and 1.27% and 1.33% and 1.1% and 0.0987% and 0.185%.
For CCCCCCCCCC(=O)CC(=O)N[C@H]1CCOC1=O [C12HSL, N-3-oxo-dodecanoyl-L-homoserine lactone, reference compound], the “agonist activity on T2R38 (in words)” value (T2R38) was “are not agonists of the receptor in our hands”, the “percentage of surface covered” value (T2R38; 0.1mM in DMSO 0.15%) was 0.46% and 1.07% and 1.52% and 0.39% and the “percentage of surface covered” value (T2R38; 0.1mM in DMSO 0.3%) was 0.20% and 0.64% and 1.46% and 0.93%. The “specific activation of the receptor” value (T2R38; 0.1 mM with either 0.3% or 0.15% DMSO in the incubation buffer) was “did not trigger any specific activation of the receptor; also recorded: did not trigger any specific activation of T2R38”, the “percentage of surface covered” value (T2R38; [2]) was 8.51% and 3.40% and 8.12% and 5.47% and 4.84% and 9.74% and the “percentage of surface covered” value (T2R38; [3]) was 2.04% and 1.92% and 1.33% and 4.51% and 5.83% and 3.09%. For the same compound, the “average calcium response, % of the one induced by 0.1 mM of PTC” value (T2R38; dissolved in DMSO 1.5% (209 mM)) was 42%, the “specific activation of T2R38” value (T2R38) was “did not trigger a specific activation of T2R38” and the “specific activation of T2R38” value (T2R38; listed as HSLC12) was “remained without effect on the receptor”. For the same compound, the “percentage of surface covered” value ([1]; 0.1mM in DMSO 0.15%) was 0.22% and 0.19%, the “percentage of surface covered” value ([1]; 0.1mM in DMSO 0.3%) was 0.00881% and 0.16% and the “percentage of surface covered” value [1, 2] was 0.92% and 1.51% and 1.40% and 0.48% and 0.97% and 3.05%. For the same compound, the “percentage of surface covered” value [1, 3] was 0.58% and 7.03% and 2.23% and 2.90% and 5.38% and 0.28%.
